What was measured:
Type in all cases: in vivo
Euphorbia [1] = experiment: Compound (A) with primisulfuron, weed plots; conditions: 45 DAA, Trial 3.20
Text: In these tests, […] and Compound (A) at rates equivalent to the sum of these. The compositions were formulated as an emulsifiable concentrate (EC).
(§1) The results in the tables under each application are the percentage of the plants that were killed.

ABUTILON THEOPHRASTI = experiment: Compound (A) with S-metolachlor, weed plots
Text: […] The compositions were formulated as an emulsifyable concentrate (EC).
(§2) The results in the table under each application are the percentage of the plants that were killed.

DIGITARIA CILIARIS = experiment: Compound (A) with paraquat, weed plots; conditions: 20 g/ha; 51 DAA; No. 1.7
Experimental: (§3) In these tests, various weeds were treated with paraquat alone at rates equivalent to 700 g per hectare and 840 g per hectare, compound (A) alone at rates equivalent to 10 g per hectare and 20 g per hectare, and with a mixture of paraquat and compound (A) at rates equivalent to the sum of these. The compositions were formulated as an emulsifyable concentrate (EC).
(§4) The results in the table under each application are the percentage of the weeds plants that were killed.

SETARIA SP. = experiment: Compound (A) with paraquat, weed plots; conditions: 27 DAA, No. 1.2
Experimental: as §3, §4

LOLIUM RIGIDUM = experiment: Compound (A) with paraquat, weed plots; conditions: 41 DAA, No. 1.4
Experimental: as §3, §4

LAMIUM PURPUREUM = experiment: Compound (A) with paraquat, weed plots; conditions: 2 DAA, No. 1.5
Experimental: as §3, §4

AMBROSIA ARTEMISIIFOLIA = experiment: Compound (A) with S-metolachlor, weed plots
Experimental: (§5) In these tests, various weeds were treated with S-metolachlor (SMOC) alone at an application rate equivalent to 1420 g per hectare, Compound (A) alone at rates equivalent to 20 g per hectare and […] and with mixtures of S-metolachlor and the Compound (A) at rates equivalent to the sum of these. The compositions were formulated as an emulsifyable concentrate (EC).
as §2

E[…]-GALLI = experiment: Compound (A) with S-metolachlor, weed plots; conditions: 28 DAA, Trial 4.1
Experimental: as §5, §2

AMBROSIA TRIFIDA = experiment: Compound (A) with S-metolachlor, weed plots
Experimental: as §5, §2

POLYGONUM PENSYLVANICUM = experiment: Compound (A) with S-metolachlor, weed plots; conditions: 56 DAA, Trial 4.14
Experimental: as §5, §2

C[…] = experiment: Compound (A) with S-metolachlor, weed plots
Experimental: as §5, §2

XANTHIUM STRUMARIUM = experiment: Compound (A) with S-metolachlor, weed plots
Experimental: as §5, §2

SESBANIA EXALTATA = experiment: Compound (A) with S-metolachlor, weed plots; conditions: 56 DAA, Trial 4.2
Experimental: as §5, §2

IPOMOEA SP. = experiment: Compound (A) with S-metolachlor, weed plots
Experimental: as §5, §2

Rice = experiment: Compound (A) with prosulfuron, weed plots; conditions: 13 DAA, No. 3.29
Experimental: (§6) In these tests, various weeds were treated with prosulfinuron alone at a rate equivalent to 35 g per hectare, […] and Compound (A) at rates equivalent to the sum of these. The compositions were formulated as an emulsifiable concentrate (EC).
as §1

Euphorbia [2] = experiment: Compound (A) with prosulfuron, weed plots; conditions: 13 DAA, No. 3.28
Experimental: as §6, §1

Wheat = experiment: Compound (A) with prosulfuron, weed plots; conditions: 13 DAA, No. 3.30
Experimental: as §6, §1

Brachiaria = experiment: Compound (A) with prosulfuron, weed plots; conditions: 13 DAA, No. 3.27
Experimental: as §6, §1

Veronica = experiment: Compound (A) with prosulfuron, weed plots; conditions: 13 DAA, No. 3.25
Experimental: as §6, §1

COMMELINA SP. = experiment: Compound (A) with nicosulfuron, weed plots
Text: In these tests, […] and Compound (A) at rates equivalent to the sum of these. The compositions were formulated as an emulsifyable concentrate (EC).
as §2

`CCOC(=O)COc1ncccc1Oc1cc(-n2c(=O)cc(C(F)(F)F)n(C)c2=O)c(F)cc1Cl` [Compound (A)] was tested, and the “percentage of the plants that were killed” value (Euphorbia [1]; 1.25 g/ha) was 50%, the “percentage of the plants that were killed” value (Euphorbia [1]; 2.5 g/ha) was 70% and the “percentage of the plants that were killed” value (Euphorbia [1]; 5 g/ha) was 70%. For the same compound, the “percentage of the plants that were killed” value (ABUTILON THEOPHRASTI; 20 g/ha, 15 DAA, Trial 4.12) was 25%, the “percentage of the plants that were killed” value (ABUTILON THEOPHRASTI; 20 g/ha, 23 DAA, Trial 4.3) was 43% and the “percentage of the plants that were killed” value (ABUTILON THEOPHRASTI; 20 g/ha, 38 DAA, Trial 4.4) was 35%. The “percentage of the plants that were killed” value (ABUTILON THEOPHRASTI; 20 g/ha, 56 DAA, Trial 4.13) was 0%, the “percentage of the plants that were killed” value (ABUTILON THEOPHRASTI; 40 g/ha, 15 DAA, Trial 4.12) was 88% and the “percentage of the plants that were killed” value (ABUTILON THEOPHRASTI; 40 g/ha, 23 DAA, Trial 4.3) was 78%. The “percentage of the plants that were killed” value (ABUTILON THEOPHRASTI; 40 g/ha, 38 DAA, Trial 4.4) was 70%, the “percentage of the plants that were killed” value (ABUTILON THEOPHRASTI; 40 g/ha, 56 DAA, Trial 4.13) was 13% and the “percentage of the weeds plants that were killed” value (DIGITARIA CILIARIS) was 0%. For the same compound, the “percentage of the weeds plants that were killed” value (SETARIA SP.; 10 g/ha) was 0%, the “percentage of the weeds plants that were killed” value (SETARIA SP.; 20 g/ha) was 25% and the “percentage of the weeds plants that were killed” value (LOLIUM RIGIDUM; 10 g/ha) was 27%. The “percentage of the weeds plants that were killed” value (LOLIUM RIGIDUM; 20 g/ha) was 47%, the “percentage of the weeds plants that were killed” value (LAMIUM PURPUREUM; 10 g/ha) was 30% and the “percentage of the weeds plants that were killed” value (LAMIUM PURPUREUM; 20 g/ha) was 33%. For the same compound, the “percentage of the plants that were killed” value (AMBROSIA ARTEMISIIFOLIA; 20 g/ha, 25 DAA, Trial 4.7) was 47%, the “percentage of the plants that were killed” value (AMBROSIA ARTEMISIIFOLIA; 20 g/ha, 49 DAA, Trial 4.8) was 30% and the “percentage of the plants that were killed” value (AMBROSIA ARTEMISIIFOLIA; 40 g/ha, 25 DAA, Trial 4.7) was 79%. For the same compound, the “percentage of the plants that were killed” value (AMBROSIA ARTEMISIIFOLIA; 40 g/ha, 49 DAA, Trial 4.8) was 69%, the “percentage of the plants that were killed” value (E[…]-GALLI; 20 g/ha) was 53% and the “percentage of the plants that were killed” value (E[…]-GALLI; 40 g/ha) was 55%. The “percentage of the plants that were killed” value (AMBROSIA TRIFIDA; 20 g/ha, 8 DAA, Trial 4.16) was 75%, the “percentage of the plants that were killed” value (AMBROSIA TRIFIDA; 20 g/ha, 42 DAA, Trial 4.15) was 23% and the “percentage of the plants that were killed” value (AMBROSIA TRIFIDA; 40 g/ha, 8 DAA, Trial 4.16) was 95%. The “percentage of the plants that were killed” value (AMBROSIA TRIFIDA; 40 g/ha, 42 DAA, Trial 4.15) was 38%, the “percentage of the plants that were killed” value (POLYGONUM PENSYLVANICUM; 20 g/ha) was 0% and the “percentage of the plants that were killed” value (POLYGONUM PENSYLVANICUM; 40 g/ha) was 13%. For the same compound, the “percentage of the plants that were killed” value (C[…]; 20 g/ha, 26 DAA, Trial 4.5) was 80%, the “percentage of the plants that were killed” value (C[…]; 20 g/ha, 54 DAA, Trial 4.6) was 0% and the “percentage of the plants that were killed” value (C[…]; 20 g/ha, 56 DAA, Trial 4.11) was 0%. For the same compound, the “percentage of the plants that were killed” value (C[…]; 40 g/ha, 26 DAA, Trial 4.5) was 80%, the “percentage of the plants that were killed” value (C[…]; 40 g/ha, 54 DAA, Trial 4.6) was 44% and the “percentage of the plants that were killed” value (C[…]; 40 g/ha, 56 DAA, Trial 4.11) was 13%. The “percentage of the plants that were killed” value (XANTHIUM STRUMARIUM; 20 g/ha, 26 DAA, Trial 4.17) was 25%, the “percentage of the plants that were killed” value (XANTHIUM STRUMARIUM; 20 g/ha, 42 DAA, Trial 4.18) was 23% and the “percentage of the plants that were killed” value (XANTHIUM STRUMARIUM; 40 g/ha, 26 DAA, Trial 4.17) was 73%. The “percentage of the plants that were killed” value (XANTHIUM STRUMARIUM; 40 g/ha, 42 DAA, Trial 4.18) was 68%, the “percentage of the plants that were killed” value (SESBANIA EXALTATA; 20 g/ha) was 50% and the “percentage of the plants that were killed” value (SESBANIA EXALTATA; 40 g/ha) was 25%. For the same compound, the “percentage of the plants that were killed” value (IPOMOEA SP.; 20 g/ha, 25 DAA, Trial 4.9) was 35%, the “percentage of the plants that were killed” value (IPOMOEA SP.; 20 g/ha, 49 DAA, Trial 4.10) was 20% and the “percentage of the plants that were killed” value (IPOMOEA SP.; 40 g/ha, 25 DAA, Trial 4.9) was 65%. For the same compound, the “percentage of the plants that were killed” value (IPOMOEA SP.; 40 g/ha, 49 DAA, Trial 4.10) was 60%, the “percentage of the plants that were killed” value (Rice; 1.25 g/ha) was 50% and the “percentage of the plants that were killed” value (Rice; 2.5 g/ha) was 70%. For the same compound, the “percentage of the plants that were killed” value (Rice; 5 g/ha) was 90%, the “percentage of the plants that were killed” value (Euphorbia [2]; 1.25 g/ha) was 50% and the “percentage of the plants that were killed” value (Euphorbia [2]; 2.5 g/ha) was 70%. For the same compound, the “percentage of the plants that were killed” value (Euphorbia [2]; 5 g/ha) was 70%, the “percentage of the plants that were killed” value (Wheat; 1.25 g/ha) was 80% and the “percentage of the plants that were killed” value (Wheat; 2.5 g/ha) was 95%. The “percentage of the plants that were killed” value (Wheat; 5 g/ha) was 100%, the “percentage of the plants that were killed” value (Brachiaria; 1.25 g/ha) was 50% and the “percentage of the plants that were killed” value (Brachiaria; 2.5 g/ha) was 60%. The “percentage of the plants that were killed” value (Brachiaria; 5 g/ha) was 98%, the “percentage of the plants that were killed” value (Veronica; 1.25 g/ha) was 80% and the “percentage of the plants that were killed” value (Veronica; 2.5 g/ha) was 100%. The “percentage of the plants that were killed” value (Veronica; 5 g/ha) was 100%, the “percentage of the plants that were killed” value (COMMELINA SP.; 5 g/ha, 10 DAA, No. 3.18) was 30% and the “percentage of the plants that were killed” value (COMMELINA SP.; 5 g/ha, 17 DAA, No. 3.19) was 20%. The “percentage of the plants that were killed” value (COMMELINA SP.; 10 g/ha, 10 DAA, No. 3.18) was 50%, the “percentage of the plants that were killed” value (COMMELINA SP.; 10 g/ha, 17 DAA, No. 3.19) was 30% and the “percentage of the plants that were killed” value (COMMELINA SP.; 20 g/ha, 10 DAA, No. 3.18) was 58%. The “percentage of the plants that were killed” value (COMMELINA SP.; 20 g/ha, 17 DAA, No. 3.19) was 50%.

From patent publication US20090233796A1, “HERBICIDAL COMPOSITION” (SYNGENTA CROP PROTECTION, INC., priority 2004, published 2009)
